Experimental data published in US8497298B2, “Use of benzo-fused heterocycle sulfamide derivatives for lowering lipids and lowering blood glucose levels” (Janssen Pharmaceutica NV, priority 2005, dated 2013).

Tests used:
[1] = test system: Zucker diabetic fatty (ZDF Gmi-fa/fa) rats; test: Zucker Diabetic Fatty Rats Assay with 29 day wash-out (Example 16); type: in vivo, rat; settings: for Blood Glucose Level Day 0: Day 0 (baseline), ad lib fed; for Blood Glucose Level Day 36: then 29 days wash-out
Description: (§1) Compound #8 was suspended in 0.5% Methocel using a hand held homogenizer to reduce the particle size and a magnetic stir bar and stir plate to keep the particles homogeneously suspended throughout the dosing period. 0.5% Hydroxypropyl Methylcellulose (Methocel) used as vehicle/control. Compound #8 was tested in both diabetic models of mouse and rat.
(§2) In this study, female Zucker diabetic fatty (ZDF Gmi-fa/fa) rats were selected for glucose lowering effect. ZDF rats from (Charles River Laboratories, Wilmington, Mass.) at 7 weeks of age were individually housed and fed with C13004 diet (obtained from Research Diets, New Brunswick, N.J.). All of the rats were quarantined for a period of one week before transfer to the animal procedure room. A drop of blood (about 2 microliters) was collected by tail puncture and glucose concentration was detected with a glucometer (OneTouch UltraSmart, Lifescan, Milpitas, Calif.).
ZDF rats at 8 weeks of age were randomized into four treatment groups based on glucose values (first criterion, average of 150 mg/dL) and body weight (second criterion, average of 240 g). 13 rats were allocated into 4 treatment groups of 3 rats each for Compound #8 treated groups and 4 rats for the non-treated group. The three groups were then treated with 10 mg/kg Compound #8, 30 mg/kg Compound #8, and 100 mg/kg Compound #8 in 0.5 methylcellulose, respectively.
The rats were orally gavaged once daily (at 1500-1700 hour) with vehicle control (0.5% Methocel, pH7.4) or vehicle containing Compound #8 for 7 days. The dosing volume was 5 mL/kg body weight (1.2 mL for 250 gram rat). The rats were fed ad lib throughout the study. The rats were then allowed 29 days of wash-out period, where no dosing was administered.
Basal glucose levels after treatments were measured on Day 0 (baseline) and Day 36 (after 7 days dosing and 29 days wash-out) in ad lib fed rats with a glucometer (OneTouch UltraSmart, Lifescan, Milpitas, Calif.) after collecting two microliters of blood through tail puncture.
Data from this study was analyzed using the standard two-tailed Student's t-test and are expressed below as means and standard errors, with results as listed in Table 15 below.

[2] = test system: Zucker diabetic fatty (ZDF Gmi-fa/fa) rats; test: Zucker Diabetic Fatty Rats Assay, Study B: basal glucose and Day 8 plasma parameters (Example 15); type: in vivo, rat; settings: for Basal glucose levels Day 4: Day 4, 2 hour fasted; for Basal glucose levels Day 4 / Basal glucose levels Day 6 / Basal glucose levels Day 0: in mg/dL; for Basal glucose levels Day 6: Day 6, 2 hour fasted; for Cholesterol / HDL / Insulin / Ratio (Triglyceride to HDL) / Triglyceride: Day 8 plasma; for Basal glucose levels Day 0: female ZDF rats
Description: as §1
as §2, with “effect and oral glucose tolerance test (OGTT) studies.” for “effect.”
ZDF rats at 8 weeks of age were randomized into four treatment groups based on glucose values (first criterion, average of 150 mg/dL) and body weight (second criterion, average of 240 g). 32 rats were allocated into 4 treatment groups of 8 rats each. The four groups were then treated with 0.5% Methocel (vehicle), 10 mg/kg Compound #8, 30 mg/kg Compound #8, and 100 mg/kg Compound #8 in vehicle, respectively.
The rats were orally gavaged once daily (at 1500-1700 hour) with vehicle control (0.5% Methocel, pH7.4) or vehicle containing Compound #8 for 7 days. The dosing volume was 5 mL/kg body weight (1.2 mL for 250 gram rat). The rats were fed ad lib throughout the study.
Basal glucose levels after treatments were measured on Day 4 and Day 6 in 2 hour fasted rats with a glucometer (OneTouch UltraSmart, Lifescan, Milpitas, Calif.) after collecting two microliters of blood through tail puncture. Oral Glucose Tolerance Test (OGTT) was performed on Day 7 in 4 hour-fasted rats. Two hours after being dosed with Compound #8 or vehicle, the rats were gavaged with a 2g/kg of 50% glucose solution right after basal glucose levels measurement (0 minute). Blood glucose levels were then measured at 30, 60, 90 and 120 minutes through tail puncture.
On Day 8, rats were anaesthetized with sodium pentobarbital (1 ml/kg, intraperitoneal [i.p.] injection, SleepAway, Fort Dodge, Iowa) and blood was drawn via cardiac puncture using 3 mL syringe and collected into heparinized tubes. Plasma samples were obtained by centrifuging whole blood at 2000˜3000 g for 10˜20 minutes at 4° C. and stored at −20° C. for further measurement of insulin, HDL, total cholesterol and triglyceride.
Plasma insulin concentrations were measured by in both studies using the appropriate rat/mouse insulin enzyme-linked immunosorbent assay (ELISA) kit (EZRMI-13K, LINCO Research, St. Charles, Mo.). Blood samples were diluted 1:4 in charcoal stripped mouse serum that was included in the ELISA kit. The rest of the procedure followed the manufacturers instruction. The total fluorescence was detected using an Orion 1 Microplate Luminometer (Berthold Detection Systems, Pforzheim, Germany).
Plasma total cholesterol, high density lipoprotein (HDL), low density lipoprotein (LDL) and triglyceride concentrations were measured by using a Bayer ADVIA 1650 blood chemistry analyzer (Bayer HealthCare LLC, Diagnostic Division, Tarrytown, N.Y.). According to manufacturers protocol, cholesterol measurement was an enzymatic method utilizing cholesterol esterase and cholesterol oxidase conversion followed by a Trinder endpoint; Elimination/catalase method was used for HDL measurement; an enzymatic method with a Trinder endpoint was used for triglyceride measurement.
Data from this study was analyzed using the standard two-tailed Student's t-test and are expressed below as means and standard errors.

NS(=O)(=O)NC[C@H]1COc2cc(Cl)ccc2O1 [Compound #8, (2S)-(−)-N-(6-Chloro-2,3-dihydro-benzo[1,4]dioxin-2-ylmethyl)-sulfamide]
Blood Glucose Level Day 0 ([1]; 10 mg/kg group): 222 ± 20 mg/dL
Blood Glucose Level Day 36 ([1]; 10 mg/kg oral once daily 7 days): 295 ± 81 mg/dL
Blood Glucose Level Day 0 ([1]; 30 mg/kg group): 229 ± 23 mg/dL
Blood Glucose Level Day 36 ([1]; 30 mg/kg oral once daily 7 days): 247 ± 86 mg/dL
Blood Glucose Level Day 0 ([1]; 100 mg/kg group): 228 ± 18 mg/dL
Blood Glucose Level Day 36 ([1]; 100 mg/kg oral once daily 7 days): 219 ± 39 mg/dL
Basal glucose levels Day 4 ([2]; 10 mg/kg oral once daily): 148 ± 15
Basal glucose levels Day 6 ([2]; 10 mg/kg oral once daily): 190 ± 28
Cholesterol ([2]; 10 mg/kg): 142 ± 6 mg/dL
HDL ([2]; 10 mg/kg): 36 ± 1.0 mg/dL
Insulin ([2]; 10 mg/kg): 16 ± 1.0 ng/mL
Ratio (Triglyceride to HDL) ([2]; 10 mg/kg): 37 ± 3
Triglyceride ([2]; 10 mg/kg): 1323 ± 124 mg/dL
Basal glucose levels Day 4 ([2]; 30 mg/kg oral once daily): 146 ± 9
Basal glucose levels Day 6 ([2]; 30 mg/kg oral once daily): 151 ± 11
Cholesterol ([2]; 30 mg/kg): 144 ± 11 mg/dL
HDL ([2]; 30 mg/kg): 36 ± 1.1 mg/dL
Insulin ([2]; 30 mg/kg): 14 ± 1.1 ng/mL
Ratio (Triglyceride to HDL) ([2]; 30 mg/kg): 39 ± 7
Triglyceride ([2]; 30 mg/kg): 1383 ± 254 mg/dL
Basal glucose levels Day 4 ([2]; 100 mg/kg oral once daily): 125 ± 4
Basal glucose levels Day 6 ([2]; 100 mg/kg oral once daily): 134 ± 5
plasma insulin decreased ([2]; 100 mg/kg, Day 8): 32%
ratio of triglyceride to HDL reduced ([2]; 100 mg/kg, Day 8): 59%
Cholesterol ([2]; 100 mg/kg): 134 ± 7 mg/dL
HDL ([2]; 100 mg/kg): 41 ± 2.2 mg/dL
Insulin ([2]; 100 mg/kg): 8.8 ± 1.2 ng/mL
Ratio (Triglyceride to HDL) ([2]; 100 mg/kg): 19 ± 3
Triglyceride ([2]; 100 mg/kg): 776 ± 119 mg/dL
food intake and weight loss ([2]; any of the groups (10, 30, 100 mg/kg)): No reduction in food intake reduction or weight loss
Basal glucose levels Day 0 ([2]; 10 mg/kg group): 153 ± 13
Basal glucose levels Day 0 ([2]; 30 mg/kg group): 152 ± 11
Basal glucose levels Day 0 ([2]; 100 mg/kg group): 147 ± 7
